± gives the expanded uncertainty stated by the source. Each block holds one compound with its values, some of them ahead of it.
Legend:
[1] = relative permittivity at zero frequency (dimensionless); xn = mol fraction of the nth substance listed; details: 298 K, 94.77 kPa, Liquid, Parallel plate capacitor
[2] = relative permittivity at zero frequency (dimensionless); details: 298 K; 94.77 kPa; Liquid; Parallel plate capacitor

relative permittivity at zero frequency ([1]; x2 = 0): 39.78 ± 4.2
relative permittivity at zero frequency ([1]; x2 = 0.1): 40.98 ± 4.3
relative permittivity at zero frequency ([1]; x2 = 0.2): 42.55 ± 4.5
relative permittivity at zero frequency ([1]; x2 = 0.3): 45.87 ± 4.9
relative permittivity at zero frequency ([1]; x2 = 0.4): 46.02 ± 4.9
relative permittivity at zero frequency ([1]; x2 = 0.5): 48.53 ± 5.2
relative permittivity at zero frequency ([1]; x2 = 0.6): 50.04 ± 5.3
relative permittivity at zero frequency ([1]; x2 = 0.7): 50.99 ± 5.4
relative permittivity at zero frequency ([1]; x2 = 0.8): 52 ± 5.5
relative permittivity at zero frequency ([1]; x2 = 0.9): 53.01 ± 7.5
SMILES: Cn1ccnc1 [1-methylimidazole] + O

relative permittivity at zero frequency ([1]; x1 = 1): 80 ± 8.5
SMILES: O [water] + Cn1ccnc1

relative permittivity at zero frequency [2]: 80 ± 8.5
SMILES: O [water]

relative permittivity at zero frequency [2]: 39.78 ± 4.2
SMILES: Cn1ccnc1 [1-methylimidazole]
